Data taken from the NIST ThermoML archive (doi:10.1021/je800998u).
± gives the expanded uncertainty stated by the source.

Assay: molar heat capacity at constant pressure
Settings: 101.33 kPa, Small (less than 1 g) adiabatic calorimetry

CC(C)COCC(C)C [diisobutyl ether]
Settings | molar heat capacity at constant pressure [J/K/mol]
140.67 K, Crystal 2 | 147.66 ± 0.79
141.68 K, Crystal 2 | 148.47 ± 0.79
142.69 K, Crystal 2 | 150.03 ± 0.8
143.69 K, Crystal 2 | 151.09 ± 0.8
144.7 K, Crystal 2 | 152.64 ± 0.81
145.71 K, Crystal 2 | 153.6 ± 0.81
146.72 K, Crystal 2 | 154.66 ± 0.82
147.73 K, Crystal 2 | 156 ± 0.82
148.74 K, Crystal 2 | 157.59 ± 0.83
149.74 K, Crystal 2 | 159.31 ± 0.84
150 K, Crystal 2 | 158.9 ± 0.8
150.75 K, Crystal 2 | 160.48 ± 0.84
151.76 K, Crystal 2 | 162.28 ± 0.85
152.76 K, Crystal 2 | 163.63 ± 0.85
153.77 K, Crystal 2 | 165.04 ± 0.86
154.77 K, Crystal 2 | 166.47 ± 0.87
155.77 K, Crystal 2 | 168.44 ± 0.87
156.77 K, Crystal 2 | 170.7 ± 0.88
157.77 K, Crystal 2 | 172.77 ± 0.89
158.77 K, Crystal 2 | 174.55 ± 0.9
159.76 K, Crystal 2 | 176.89 ± 0.91
160 K, Crystal 2 | 171.1 ± 0.9
160.22 K, Crystal 2 | 177.95 ± 0.91
161.05 K, Crystal 2 | 179.83 ± 0.92
161.87 K, Crystal 2 | 182.1 ± 0.93
162.69 K, Crystal 2 | 184.81 ± 0.94
163.5 K, Crystal 2 | 188 ± 0.95
164.29 K, Crystal 2 | 190.62 ± 0.97
165.08 K, Crystal 2 | 194.31 ± 0.98
165.86 K, Crystal 2 | 198.38 ± 1
166.64 K, Crystal 2 | 203.33 ± 1
167.41 K, Crystal 2 | 209.11 ± 1.1
168.16 K, Crystal 2 | 214.73 ± 1.1
168.9 K, Crystal 2 | 223.05 ± 1.1
169.63 K, Crystal 2 | 234.85 ± 1.4
170.31 K, Crystal 2 | 282.57 ± 1.9
170.71 K, Crystal 1 | 172.2 ± 0.9
170.71 K, Crystal 2 | 184.2 ± 0.9
171.96 K, Crystal 1 | 180.54 ± 0.92
172.76 K, Crystal 1 | 180.42 ± 0.92
173.54 K, Crystal 1 | 180.19 ± 0.92
174.34 K, Crystal 1 | 181.2 ± 0.93
175.14 K, Crystal 1 | 182.92 ± 0.93
175.93 K, Crystal 1 | 183.75 ± 0.94
176.72 K, Crystal 1 | 185.64 ± 0.94
177.5 K, Crystal 1 | 187.45 ± 0.95
178.28 K, Crystal 1 | 189.66 ± 0.96
179.05 K, Crystal 1 | 192.53 ± 0.97
179.81 K, Crystal 1 | 195.2 ± 0.98
180 K, Crystal 1 | 193.8 ± 1
190.4 K, Crystal 1 | 218 ± 1.1
190.4 K, Liquid | 241.1 ± 1.2
200 K, Liquid | 243.7 ± 1.2
205.51 K, Liquid | 245.31 ± 1.2
207.14 K, Liquid | 245.51 ± 1.2
208.62 K, Liquid | 246.05 ± 1.2
210 K, Liquid | 246.3 ± 1.2
210.09 K, Liquid | 246.27 ± 1.2
211.57 K, Liquid | 246.56 ± 1.2
213.04 K, Liquid | 247.06 ± 1.2
214.48 K, Liquid | 247.32 ± 1.2
215.95 K, Liquid | 247.78 ± 1.2
217.42 K, Liquid | 248.16 ± 1.2
218.89 K, Liquid | 248.58 ± 1.2
220 K, Liquid | 248.9 ± 1.2
220.35 K, Liquid | 248.91 ± 1.2
221.82 K, Liquid | 249.16 ± 1.2
223.28 K, Liquid | 249.85 ± 1.2
224.74 K, Liquid | 250.34 ± 1.2
226.2 K, Liquid | 250.85 ± 1.2
227.65 K, Liquid | 251.29 ± 1.2
229.11 K, Liquid | 251.85 ± 1.2
230 K, Liquid | 251.9 ± 1.2
230.56 K, Liquid | 252.2 ± 1.2
232.02 K, Liquid | 252.69 ± 1.2
233.46 K, Liquid | 252.85 ± 1.2
234.91 K, Liquid | 253.44 ± 1.2
236.36 K, Liquid | 253.83 ± 1.2
237.75 K, Liquid | 254.25 ± 1.2
239.2 K, Liquid | 254.81 ± 1.2
240 K, Liquid | 255 ± 1.2
240.64 K, Liquid | 255.42 ± 1.2
242.08 K, Liquid | 255.9 ± 1.2
243.52 K, Liquid | 256 ± 1.2
244.96 K, Liquid | 256.76 ± 1.2
246.39 K, Liquid | 256.99 ± 1.2
247.83 K, Liquid | 257.45 ± 1.2
249.26 K, Liquid | 257.99 ± 1.2
250 K, Liquid | 258.3 ± 1.2
250.69 K, Liquid | 258.39 ± 1.2
252.11 K, Liquid | 258.84 ± 1.2
253.54 K, Liquid | 259.49 ± 1.2
254.96 K, Liquid | 259.95 ± 1.2
256.39 K, Liquid | 260.62 ± 1.2
257.8 K, Liquid | 260.96 ± 1.2
259.22 K, Liquid | 261.75 ± 1.2
260 K, Liquid | 261.8 ± 1.2
260.56 K, Liquid | 261.97 ± 1.2
261.97 K, Liquid | 262.87 ± 1.2
263.39 K, Liquid | 262.95 ± 1.2
264.79 K, Liquid | 263.61 ± 1.2
266.2 K, Liquid | 263.86 ± 1.3
267.6 K, Liquid | 264.22 ± 1.3
269 K, Liquid | 264.8 ± 1.3
270 K, Liquid | 265.3 ± 1.3
270.4 K, Liquid | 265.39 ± 1.3
271.8 K, Liquid | 265.93 ± 1.3
273.19 K, Liquid | 266.68 ± 1.3
274.58 K, Liquid | 266.81 ± 1.3
275.97 K, Liquid | 267.53 ± 1.3
277.36 K, Liquid | 267.85 ± 1.3
278.74 K, Liquid | 268.3 ± 1.3
280 K, Liquid | 269 ± 1.3
281.5 K, Liquid | 269.6 ± 1.3
282.78 K, Liquid | 270.45 ± 1.3
284.16 K, Liquid | 270.8 ± 1.3
285.53 K, Liquid | 271.08 ± 1.3
286.9 K, Liquid | 271.46 ± 1.3
288.26 K, Liquid | 271.98 ± 1.3
289.62 K, Liquid | 272.75 ± 1.3
290 K, Liquid | 272.8 ± 1.3
290.98 K, Liquid | 273.36 ± 1.3
292.34 K, Liquid | 273.73 ± 1.3
293.69 K, Liquid | 274.04 ± 1.3
295.04 K, Liquid | 275.21 ± 1.3
296.39 K, Liquid | 275.08 ± 1.3
297.73 K, Liquid | 275.64 ± 1.3
298.15 K, Liquid | 276.08 ± 1.3
299.07 K, Liquid | 276.44 ± 1.3
300 K, Liquid | 276.8 ± 1.3
300.41 K, Liquid | 277.1 ± 1.3
301.75 K, Liquid | 277.51 ± 1.3
303.04 K, Liquid | 278.07 ± 1.3
304.14 K, Liquid | 278.56 ± 1.3
305.42 K, Liquid | 279.01 ± 1.3
306.7 K, Liquid | 279.35 ± 1.3
307.97 K, Liquid | 279.87 ± 1.3
309.24 K, Liquid | 280.81 ± 1.3
310 K, Liquid | 280.8 ± 1.3
310.5 K, Liquid | 280.87 ± 1.3
311.76 K, Liquid | 281.46 ± 1.3
313.02 K, Liquid | 282.03 ± 1.3
314.27 K, Liquid | 282.55 ± 1.3
315.52 K, Liquid | 282.93 ± 1.3
316.76 K, Liquid | 283.81 ± 1.3
318 K, Liquid | 284.25 ± 1.3
319.23 K, Liquid | 284.87 ± 1.3
320 K, Liquid | 285 ± 1.3
320.46 K, Liquid | 285.2 ± 1.3
321.69 K, Liquid | 285.88 ± 1.3
322.91 K, Liquid | 286.38 ± 1.4
323.9 K, Liquid | 286.65 ± 1.4
325.11 K, Liquid | 287.21 ± 1.4
326.32 K, Liquid | 287.74 ± 1.4
327.53 K, Liquid | 288.35 ± 1.4
328.73 K, Liquid | 288.89 ± 1.4
329.92 K, Liquid | 289.24 ± 1.4
330 K, Liquid | 289.5 ± 1.4
331.11 K, Liquid | 289.99 ± 1.4
332.3 K, Liquid | 290.62 ± 1.4
333.48 K, Liquid | 291.36 ± 1.4
334.66 K, Liquid | 291.41 ± 1.4
335.83 K, Liquid | 292.26 ± 1.4
337 K, Liquid | 292.85 ± 1.4
338.16 K, Liquid | 293.71 ± 1.4
339.32 K, Liquid | 294.5 ± 1.4
340 K, Liquid | 294.7 ± 1.4
340.48 K, Liquid | 295.14 ± 1.4
343.62 K, Liquid | 297.13 ± 1.4
344.76 K, Liquid | 297.38 ± 1.4
345.9 K, Liquid | 297.62 ± 1.4
347.04 K, Liquid | 298.5 ± 1.4
348.17 K, Liquid | 299 ± 1.4
350 K, Liquid | 300 ± 1.4
350.41 K, Liquid | 300.11 ± 1.4
351.51 K, Liquid | 300.37 ± 1.4
352.61 K, Liquid | 301.47 ± 1.4
353.7 K, Liquid | 302.2 ± 1.4
354.79 K, Liquid | 302.27 ± 1.4
355.88 K, Liquid | 302.92 ± 1.4
356.96 K, Liquid | 303.07 ± 1.4
358.04 K, Liquid | 303.49 ± 1.4
359.11 K, Liquid | 304.07 ± 1.4
359.83 K, Liquid | 304.07 ± 1.4
360 K, Liquid | 304.4 ± 1.4
360.9 K, Liquid | 304.89 ± 1.4
361.96 K, Liquid | 305.2 ± 1.4
363.02 K, Liquid | 305.35 ± 1.4
364.07 K, Liquid | 305.71 ± 1.4
365.12 K, Liquid | 305.76 ± 1.4
366.14 K, Liquid | 306.97 ± 1.4
367.16 K, Liquid | 307.23 ± 1.4
368.17 K, Liquid | 308 ± 1.4
369.17 K, Liquid | 308.72 ± 1.4
370 K, Liquid | 308.9 ± 1.4
370.15 K, Liquid | 309.38 ± 1.4
371.14 K, Liquid | 309.88 ± 1.4
372.11 K, Liquid | 310.26 ± 1.4
